Test results taken from US11685746B2, “Heteroaryl compounds for treating Huntington's disease” (PTC THERAPEUTICS, INC., priority 2018, dated 2023).

System: Endogenous Huntingtin Protein
Experiment: Endogenous Huntingtin Protein Assay (MSD plates, MW1 or MAB2166 capture antibody)
Format: cell-based
Conditions: Table 1
Experimental: Endogenous Huntingtin Protein Assay
Meso Scale Discovery (MSD) 96-well or 384-well plates were coated overnight at 4° C. with MW1 (expanded polyglutamine) or MAB2166 monoclonal antibody (for capture) at a concentration of 1 μg/mL in PBS (30 μL per well). Plates were then washed three times with 300 μL wash buffer (0.05% Tween-20 in PBS) and blocked (100 μL blocking buffer; 5% BSA in PBS) for 4-5 hours at room temperature with rotational shaking and then washed three times with wash buffer.
Samples (25 μL) were transferred to the antibody-coated MSD plate and incubated overnight at 4° C. After removal of the lysates, the plate was washed three times with wash buffer, and 25 μL of #5656S (Cell signaling; rabbit monoclonal) secondary antibody (diluted to 0.25 μg/mL in 0.05% Tween-20 in blocking buffer) was added to each well and incubated with shaking for 1 Hour at room temperature. Following incubation with the secondary antibody, the wells were rinsed with wash buffer after which 25 μL of goat anti-rabbit SULFO TAG secondary detection antibody (required aspect of the MSD system) (diluted to 0.25 μg/mL in 0.05% Tween-20 in blocking buffer) was added to each well and incubated with shaking for 1 hour at room temperature. After rinsing three times with wash buffer, 150 μL of read buffer T with surfactant (MSD) were added to each empty well, and the plate was imaged on a SI 6000 imager (MSD) according to manufacturers' instructions provided for 96- or 384-well plates.

SMILES	IC50
C[C@@H]1C[C@@H](N(C)c2nc3sc(-c4ccc(-c5cn[nH]c5)cc4O)nc3s2)C[C@H](C)N1 [Compound 34, 2-(5-{[(2R,4s,6S)-2,6-dimethylpiperidin-4-yl](methyl)amino}[1,3]thiazolo[5,4-d][1,3]thiazol-2-yl)-5-(1H-pyrazol-4-yl)phenol]	≤ 100 nM
CN(c1nc2sc(-c3ccc(-c4ccnc(O)c4)cc3O)nc2s1)C1CCNCC1 [Compound 35, 4-(3-hydroxy-4-{5-[methyl(piperidin-4-yl)amino][1,3]thiazolo[5,4-d][1,3]thiazol-2-yl}phenyl)pyridin-2-ol]	3000 to 9000 nM
CN(c1nc2sc(-c3ccc(-c4ccn(C)c(=O)c4)cc3O)nc2s1)C1CCNCC1 [Compound 36, 4-(3-hydroxy-4-{5-[methyl(piperidin-4-yl)amino][1,3]thiazolo[5,4-d][1,3]thiazol-2-yl}phenyl)-1-methylpyridin-2(1H)-one]	100 to 500 nM
CC1(C)CC(Oc2nc3sc(-c4ccc(-c5cn[nH]c5)cc4O)nc3s2)CC(C)(C)N1 [Compound 37, 5-(1H-pyrazol-4-yl)-2-{5-[(2,2,6,6-tetramethylpiperidin-4-yl)oxy][1,3]thiazolo[5,4-d][1,3]thiazol-2-yl}phenol]	≤ 100 nM
Cn1ccc(-c2ccc(-c3nc4sc(OC5CC(C)(C)NC(C)(C)C5)nc4s3)c(O)c2)cc1=O [Compound 38, 4-(3-hydroxy-4-{5-[(2,2,6,6-tetramethylpiperidin-4-yl)oxy][1,3]thiazolo[5,4-d][1,3]thiazol-2-yl}phenyl)-1-methylpyridin-2(1H)-one]	100 to 500 nM
[2H]C([2H])([2H])n1cc(-c2ccc(-c3nc4sc(N(C)C5CCNCC5)nc4s3)c(O)c2)cn1 [Compound 39, 2-{5-[methyl(piperidin-4-yl)amino][1,3]thiazolo[5,4-d][1,3]thiazol-2-yl}-5-[1-(^2H3)methyl-1H-pyrazol-4-yl]phenol]	≤ 100 nM
CN(c1nc2sc(-c3ccc(-c4cnn(C)c4)cc3O)nc2s1)C1CCNCC1 [Compound 40, 2-{5-[methyl(piperidin-4-yl)amino][1,3]thiazolo[5,4-d][1,3]thiazol-2-yl}-5-(1-methyl-1H-pyrazol-4-yl)phenol]	≤ 100 nM
Cc1cn2cc(-c3nc4sc(C5=CCNCC5)nc4s3)nc2c(C)n1 [Compound 41, 6,8-dimethyl-2-[5-(1,2,3,6-tetrahydropyridin-4-yl)[1,3]thiazolo[5,4-d][1,3]thiazol-2-yl]imidazo[1,2-a]pyrazine]	100 to 500 nM
CN(c1nc2sc(-c3ncc(-c4cn[nH]c4)cc3O)nc2s1)C1CC(C)(C)NC(C)(C)C1 [Compound 42, 2-{5-[methyl(2,2,6,6-tetramethylpiperidin-4-yl)amino][1,3]thiazolo[5,4-d][1,3]thiazol-2-yl}-5-(1H-pyrazol-4-yl)pyridin-3-ol]	≤ 100 nM
CN(c1nc2sc(-c3ccc(-c4cn[nH]c4F)cc3O)nc2s1)C1CC(C)(C)NC(C)(C)C1 [Compound 43, 5-(5-fluoro-1H-pyrazol-4-yl)-2-{5-[methyl(2,2,6,6-tetramethylpiperidin-4-yl)amino][1,3]thiazolo[5,4-d][1,3]thiazol-2-yl}phenol]	≤ 100 nM
Cc1cn2cc(-c3nc4sc(C5CCNCC5)nc4s3)nc2c(C)n1 [Compound 44, 6,8-dimethyl-2-[5-(piperidin-4-yl)[1,3]thiazolo[5,4-d][1,3]thiazol-2-yl]imidazo[1,2-a]pyrazine]	1000 to 3000 nM
Cn1ncc(-c2ccc(-c3nc4sc(OC5CC(C)(C)NC(C)(C)C5)nc4s3)c(O)c2)c1F [Compound 45, 5-(5-fluoro-1-methyl-1H-pyrazol-4-yl)-2-{5-[(2,2,6,6-tetramethylpiperidin-4-yl)oxy][1,3]thiazolo[5,4-d][1,3]thiazol-2-yl}phenol]	≤ 100 nM
CN(c1nc2sc(-c3ccc(-c4ccn(C)c(=O)c4)cc3O)nc2s1)C1CC(C)(C)NC(C)(C)C1 [Compound 46]	≤ 100 nM
CN(c1nc2sc(-c3ncc(-c4cn[nH]c4)cc3O)nc2s1)C1CCNCC1 [Compound 47, 2-{5-[methyl(piperidin-4-yl)amino][1,3]thiazolo[5,4-d][1,3]thiazol-2-yl}-5-(1H-pyrazol-4-yl)pyridin-3-ol]	≤ 100 nM
CN(c1nc2sc(-c3ccc(-c4cnn(C)c4F)cc3O)nc2s1)C1CC(C)(C)NC(C)(C)C1 [Compound 48, 5-(5-fluoro-1-methyl-1H-pyrazol-4-yl)-2-{5-[methyl(2,2,6,6-tetramethylpiperidin-4-yl)amino][1,3]thiazolo[5,4-d][1,3]thiazol-2-yl}phenol]	100 to 500 nM
[2H]C([2H])([2H])n1cc(-c2cnc(-c3nc4sc(N(C)C5CC(C)(C)NC(C)(C)C5)nc4s3)c(O)c2)cn1 [Compound 49, 5-[1-(^2H3)methyl-1H-pyrazol-4-yl]-2-{5-[methyl(2,2,6,6-tetramethylpiperidin-4-yl)amino][1,3]thiazolo[5,4-d][1,3]thiazol-2-yl}pyridin-3-ol]	≤ 100 nM

SMILES	IC50
CCn1cc(-c2cnc(-c3nc4sc(N(C)C5CC(C)(C)NC(C)(C)C5)nc4s3)c(O)c2)cn1 [Compound 50, 5-(1-ethyl-1H-pyrazol-4-yl)-2-{5-[methyl(2,2,6,6-tetramethylpiperidin-4-yl)amino][1,3]thiazolo[5,4-d][1,3]thiazol-2-yl}pyridin-3-ol]	100 to 500 nM
[2H]C([2H])([2H])n1cc(-c2cnc(-c3nc4sc(N(C)C5CCNCC5)nc4s3)c(O)c2)cn1 [Compound 51, 2-{5-[methyl(piperidin-4-yl)amino][1,3]thiazolo[5,4-d][1,3]thiazol-2-yl}-5-[1-(^2H3)methyl-1H-pyrazol-4-yl]pyridin-3-ol]	≤ 100 nM
CCn1cc(-c2cnc(-c3nc4sc(N(C)C5CCNCC5)nc4s3)c(O)c2)cn1 [Compound 52, 5-(1-ethyl-1H-pyrazol-4-yl)-2-{5-[methyl(piperidin-4-yl)amino][1,3]thiazolo[5,4-d][1,3]thiazol-2-yl}pyridin-3-ol]	1000 to 3000 nM
CN(c1nc2sc(-c3ncc(-c4cn[nH]c4F)cc3O)nc2s1)C1CCNCC1 [Compound 53, 5-(5-fluoro-1H-pyrazol-4-yl)-2-{5-[methyl(piperidin-4-yl)amino][1,3]thiazolo[5,4-d][1,3]thiazol-2-yl}pyridin-3-ol]	≤ 100 nM
CN(c1nc2sc(-c3ccc(-c4cn[nH]c4)cc3O)nc2s1)[C@H]1CCNC1 [Compound 54, 2-(5-{methyl[(3S)-pyrrolidin-3-yl]amino}[1,3]thiazolo[5,4-d][1,3]thiazol-2-yl)-5-(1H-pyrazol-4-yl)phenol]	≤ 100 nM
CN(c1nc2sc(-c3ccc(-c4cn[nH]c4)cc3O)nc2s1)[C@@H]1CCNC1 [Compound 55, 2-(5-{methyl[(3R)-pyrrolidin-3-yl]amino}[1,3]thiazolo[5,4-d][1,3]thiazol-2-yl)-5-(1H-pyrazol-4-yl)phenol]	≤ 100 nM
CN(c1nc2sc(-c3ncc(-c4cn[nH]c4)cc3O)nc2s1)[C@@H]1CCNC1 [Compound 56, 2-(5-{methyl[(3R)-pyrrolidin-3-yl]amino}[1,3]thiazolo[5,4-d][1,3]thiazol-2-yl)-5-(1H-pyrazol-4-yl)pyridin-3-ol]	≤ 100 nM
CN(c1nc2sc(-c3ncc(Br)cc3O)nc2s1)C1CCNCC1 [Compound 57, 5-bromo-2-{5-[methyl(piperidin-4-yl)amino][1,3]thiazolo[5,4-d][1,3]thiazol-2-yl}pyridin-3-ol]	1000 to 3000 nM
[2H]C([2H])([2H])n1cc(-c2ccc(-c3nc4sc(N(C)C5CCN(C)CC5)nc4s3)c(O)c2)cn1 [Compound 58, 2-{5-[methyl(1-methylpiperidin-4-yl)amino][1,3]thiazolo[5,4-d][1,3]thiazol-2-yl}-5-[1-(^2H3)methyl-1H-pyrazol-4-yl]phenol]	≤ 100 nM
CCN1CCC(N(C)c2nc3sc(-c4ccc(-c5cnn(C)c5)cc4O)nc3s2)CC1 [Compound 59, 2-{5-[(1-ethylpiperidin-4-yl)(methyl)amino][1,3]thiazolo[5,4-d][1,3]thiazol-2-yl}-5-(1-methyl-1H-pyrazol-4-yl)phenol]	≤ 100 nM
CN(c1nc2sc(-c3ncc(-n4ccnc4)cc3O)nc2s1)C1CCNCC1 [Compound 60, 5-(1H-imidazol-1-yl)-2-{5-[methyl(piperidin-4-yl)amino][1,3]thiazolo[5,4-d][1,3]thiazol-2-yl}pyridin-3-ol]	1000 to 3000 nM
CCN(c1nc2sc(-c3ncc(-c4cn[nH]c4)cc3O)nc2s1)C1CCNCC1 [Compound 61, 2-{5-[ethyl(piperidin-4-yl)amino][1,3]thiazolo[5,4-d][1,3]thiazol-2-yl}-5-(1H-pyrazol-4-yl)pyridin-3-ol]	≤ 100 nM
CN(c1nc2sc(-c3ncc(-n4cc(F)cn4)cc3O)nc2s1)C1CCNCC1 [Compound 62, 5-(4-fluoropyrazol-1-yl)-2-[5-[methyl(4-piperidyl)amino]thiazolo[5,4-d]thiazol-2-yl]pyridin-3-ol]	1000 to 3000 nM
Cc1cnn(-c2cnc(-c3nc4sc(N(C)C5CCNCC5)nc4s3)c(O)c2)c1 [Compound 63, 5-(4-methylpyrazol-1-yl)-2-[5-[methyl(4-piperidyl)amino]thiazolo[5,4-d]thiazol-2-yl]pyridin-3-ol]	3000 to 9000 nM
CN(c1nc2sc(-c3ncc(-c4cncs4)cc3O)nc2s1)C1CCNCC1 [Compound 64, 5-(thiazol-5-yl)-2-{5-[methyl(piperidin-4-yl)amino][1,3]thiazolo[5,4-d][1,3]thiazol-2-yl}pyridin-3-ol]	100 to 500 nM
